Data: ChEMBL document CHEMBL1122681, “(Acylaryloxy)acetic acid diuretics. 5. [(2-Alkyl- and 2,2-disubstituted-1,3-dioxo-5-indanyl)oxy]acetic acids” (J Med Chem, 1984)

Experiments:
[1] = tested on: Pan troglodytes; assay: Compound was evaluated for diuretic activity in chimpanzee measured as increase in volume of urine at 5 mg/kg; assay type: functional
[2] = tested on: Rattus norvegicus; assay: Compound was evaluated for diuretic activity administered orally in female rats measured as milliequivalents of K+x 100 / cage at 27 mg/kg; assay type: functional, Urine; settings: route oral
[3] = tested on: Rattus norvegicus; assay: Compound was evaluated for diuretic activity administered orally in female rats measured as milliequivalents of Na+x 100 / cage at 27 mg/kg; assay type: functional, Urine; settings: route oral
[4] = tested on: Rattus norvegicus; assay: Compound was evaluated for diuretic activity administered orally in female rats measured as milliequivalents of K+x 100 / cage at 9 mg/kg; assay type: functional, Urine; settings: route oral
[5] = tested on: Pan troglodytes; assay: Compound was evaluated for diuretic activity in chimpanzee measured as increase in the number of microequivalents of K+ /min at 5 mg/kg; assay type: functional, Urine
[6] = tested on: Rattus norvegicus; assay: Compound was evaluated for diuretic activity administered orally in female rats measured as milliequivalents of Cl-x 100 / cage at 9 mg/kg; assay type: functional, Urine; settings: route oral
[7] = tested on: Rattus norvegicus; assay: Compound was evaluated for diuretic activity administered orally in female rats measured as milliequivalents of Cl-x 100 / cage at 3 mg/kg; assay type: functional, Urine; settings: route oral
[8] = tested on: Pan troglodytes; assay: Compound was evaluated for diuretic activity in chimpanzee measured as increase in the number of microequivalents of Cl- electrolyte/min at 1 mg/kg; assay type: functional, Urine
[9] = tested on: Rattus norvegicus; assay: Compound was evaluated for diuretic activity administered orally in female rats measured as milliequivalents of K+x 100 / cage at 81 mg/kg; assay type: functional, Urine; settings: route oral
[10] = tested on: Pan troglodytes; assay: (§1) Compound was evaluated for diuretic activity in chimpanzee measured as increase in the number of microequivalents of Na+ /min at 1 mg/kg; assay type: functional, Urine
[11] = tested on: Pan troglodytes; assay: Compound was evaluated for diuretic activity in chimpanzee measured as clearance of […] and urate after peroral administration of 5 mg/kg; assay type: functional, Urine; settings: route oral
[12] = tested on: Pan troglodytes; assay: Compound was evaluated for diuretic activity in chimpanzee measured as clearance of […] and urate after intravenous administration of 1 mg/kg; assay type: functional, Urine
[13] = tested on: Pan troglodytes; assay: Compound was evaluated for diuretic activity in chimpanzee measured as increase in the number of microequivalents of Cl- electrolyte/min at 5 mg/kg; assay type: functional, Urine
[14] = volume of urine at 27 mg/kg; assay type: ADME, organism-based; parameters: dose 27 mg/kg; settings: in vivo
[15] = tested on: Pan troglodytes; assay: Compound was evaluated for diuretic activity in chimpanzee measured as increase in volume of urine at 1 mg/kg; assay type: functional
[16] = tested on: Pan troglodytes; assay: Compound was evaluated for diuretic activity in chimpanzee measured as increase in the number of microequivalents of K+ /min at 1 mg/kg; assay type: functional, Urine
[17] = tested on: Canis familiaris; assay: Compound was evaluated for diuretic activity, in female mongrel dogs by measuring volume of urine, after iv administration of 5 mg/kg (control/compound treatment results) Control = 2; assay type: ADME, organism-based, Canis lupus familiaris; parameters: dose 5 mg/kg, route intravenous; settings: dog, in vivo
[18] = volume of urine at 9 mg/kg; assay type: ADME, organism-based; parameters: dose 9 mg/kg; settings: in vivo
[19] = volume of urine at 3 mg/kg; assay type: ADME, organism-based; parameters: dose 3 mg/kg; settings: in vivo
[20] = tested on: Rattus norvegicus; assay: Compound was evaluated for diuretic activity administered orally in female rats measured as milliequivalents of Cl-x 100 / cage at 81 mg/kg; assay type: functional, Urine; settings: route oral
[21] = tested on: Pan troglodytes; assay: Compound was evaluated for diuretic activity in chimpanzee measured as increase in the number of microequivalents of Na+ /min at 5 mg/kg; assay type: functional, Urine
[22] = tested on: Canis familiaris; assay: Compound was evaluated for diuretic activity, in female mongrel dogs by measuring amount of K+ in urine after iv administration of 5 mg/kg (control/compound treatment results) Control = 10; assay type: functional, Canis lupus familiaris
[23] = tested on: Rattus norvegicus; assay: Compound was evaluated for diuretic activity administered orally in female rats measured as milliequivalents of Na+x 100 / cage at 9 mg/kg; assay type: functional, Urine; settings: route oral
[24] = tested on: Rattus norvegicus; assay: Compound was evaluated for diuretic activity administered orally in female rats measured as milliequivalents of Cl-+x 100 / cage at 27 mg/kg; assay type: functional, Urine; settings: route oral
[25] = tested on: Rattus norvegicus; assay: Compound was evaluated for diuretic activity administered orally in female rats measured as milliequivalents of K+x 100 / cage at 3 mg/kg; assay type: functional, Urine; settings: route oral
[26] = tested on: Canis familiaris; assay: Compound was evaluated for diuretic activity, in female mongrel dogs by measuring amount of Na+ in urine after iv administration of 5 mg/kg (control/compound treatment results) Control = 35; assay type: functional, Canis lupus familiaris
[27] = tested on: Canis familiaris; assay: Compound was evaluated for diuretic activity, in female mongrel dogs by measuring amount of Cl- in urine after iv administration of 5 mg/kg (control/compound treatment results) Control = 5; assay type: functional, Canis lupus familiaris
[28] = tested on: Rattus norvegicus; assay: Compound was evaluated for diuretic activity administered orally in female rats measured as milliequivalents of Na+x 100 / cage at 81 mg/kg; assay type: functional, Urine; settings: route oral
[29] = tested on: Rattus norvegicus; assay: Compound was evaluated for diuretic activity administered orally in female rats measured as milliequivalents of Na+x 100 / cage at 3 mg/kg; assay type: functional, Urine; settings: route oral
[30] = volume of urine at 81 mg/kg; assay type: ADME, organism-based; parameters: dose 81 mg/kg; settings: in vivo
[31] = species: Canis familiaris; assay: (§2) Volume of urine in dog; assay type: ADME, organism-based, Canis lupus familiaris; settings: in vivo
[32] = tested on: Pan troglodytes; assay: as §1; assay type: functional, Urine; remark: listed apart in the source
[33] = Volume of urine at 3 mg/kg; assay type: ADME, organism-based; parameters: dose 3 mg/kg; settings: in vivo
[34] = Volume of urine at 27 mg/kg; assay type: ADME, organism-based; parameters: dose 27 mg/kg; settings: in vivo
[35] = tested on: Canis familiaris; assay: Compound was evaluated for diuretic activity, administered orally in female mongrel dogs (5 mg/kg) measured as milliequivalents of Cl-; assay type: functional, Canis lupus familiaris, Urine
[36] = tested on: Canis familiaris; assay: Compound was evaluated for diuretic activity, in female mongrel dogs by measuring amount of K+ in urine after iv administration of 5 mg/kg (control/compound treatment results) Control = 5; assay type: functional, Canis lupus familiaris
[37] = Volume of urine at 81 mg/kg; assay type: ADME, organism-based; parameters: dose 81 mg/kg; settings: in vivo
[38] = Volume of urine at 9 mg/kg; assay type: ADME, organism-based; parameters: dose 9 mg/kg; settings: in vivo
[39] = tested on: Canis familiaris; assay: Compound was evaluated for diuretic activity, administered orally in female mongrel dogs (5 mg/kg) measured as milliequivalents of K; assay type: functional, Canis lupus familiaris, Urine
[40] = tested on: Canis familiaris; assay: Compound was evaluated for diuretic activity, administered orally in female mongrel dogs (5 mg/kg) measured as milliequivalents of Na; assay type: functional, Canis lupus familiaris, Urine
[41] = tested on: Canis familiaris; assay: Compound was evaluated for diuretic activity, in female mongrel dogs by measuring amount of Na+ in urine after iv administration of 5 mg/kg (control/compound treatment results) Control = 24; assay type: functional, Canis lupus familiaris
[42] = tested on: Pan troglodytes; assay: Compound was evaluated for diuretic activity in chimpanzee measured as clearance of […] and urate after intra venous administration of 1 mg/kg; assay type: functional, Urine
[43] = tested on: Canis familiaris; assay: Compound was evaluated for diuretic activity, in female mongrel dogs by measuring amount of Cl- in urine after iv administration of 5 mg/kg (control/compound treatment results) Control = 9; assay type: functional, Canis lupus familiaris
[44] = species: Canis familiaris; assay: as §2; assay type: functional, Canis lupus familiaris
[45] = tested on: Pan troglodytes; assay: Compound was evaluated for diuretic activity in chimpanzee measured as increase in the number of microequivalents of Cl- electrolyte/min at 1.5 mg/kg; assay type: functional, Urine
[46] = tested on: Canis familiaris; assay: Compound was evaluated for diuretic activity, in female mongrel dogs by measuring amount of K+ in urine after iv administration of 5 mg/kg (control/compound treatment results) Control = 13; assay type: functional, Canis lupus familiaris
[47] = tested on: Pan troglodytes; assay: Compound was evaluated for diuretic activity in chimpanzee measured as increase in the number of microequivalents of K+ /min at 1.5 mg/kg; assay type: functional, Urine
[48] = tested on: Pan troglodytes; assay: Compound was evaluated for diuretic activity in chimpanzee measured as clearance of […] and urate after intra venous administration of.1 5 mg/kg.; assay type: functional, Urine
[49] = tested on: Pan troglodytes; assay: Compound was evaluated for diuretic activity in chimpanzee measured as increase in the number of microequivalents of Na+ /min at 1 0.5 mg/kg; assay type: functional, Urine
[50] = tested on: Canis familiaris; assay: Compound was evaluated for diuretic activity, in female mongrel dogs by measuring amount of Na+ in urine after iv administration of 5 mg/kg (control/compound treatment results) Control = 59; assay type: functional, Canis lupus familiaris

| SMILES | Increase in volume [1] | Activity [2] | Activity [3] | Activity [4] | Increase [5] | Activity [6] | Activity [7] | Increase [8] | Activity [9] | Delta C urate / delta C insulin [11] | Increase [13] | Increase in volume [15] | Urine volume [17] | Activity [20] | Increase [21] | Activity [23] | Activity [24] | Activity [25] | Activity [28] | Activity [29] | other results |
| --- | --- | --- | --- | --- | --- | --- | --- | --- | --- | --- | --- | --- | --- | --- | --- | --- | --- | --- | --- | --- | --- |
| Cc1c(OCC(=O)O)cc2c(c1Cl)C(=O)C(C)(C1CCCC1)C2=O (stereo not drawn) | 0 mL/min | 22 | 50 | 24 | 54 | 30 | 17 | 129 | 36 | 0.149 | 527 | 0.6 mL/min | 2 mL/min | 86 | 388 | 41 | 40 | 21 | 76 | 19 | Increase [10]: 82; Delta C urate / delta C insulin [12]: 0.204; Urine volume [14]: 27 mL; Increase [16]: 51; Urine volume [18]: 27 mL; Urine volume [19]: 24 mL; Activity [22]: 41 u equiv min-1; Activity [26]: 132 u equiv min-1; Activity [27]: 48 u equiv min-1; Urine volume [30]: 25 mL |
| Cc1c(OCC(=O)O)cc2c(c1Cl)C(=O)C1(CCCC1)C2=O [(ACYLARYLOXY)ACETIC ACID] | -0.5 mL/min | 32 | 35 | 30 | 39 | 15 | 10 | 117 | 29 | 0.053 | 211 | 1.1 mL/min | 5 mL/min | 61 | 170 | 26 | 30 | 23 | 47 | 14 | Urine volume [31]: 253 mL; Increase [32]: 59; Urine volume [33]: 29 mL; Urine volume [34]: 33 mL; Activity [35]: 3; Activity [36]: 23 u equiv min-1; Increase [16]: 37; Urine volume [37]: 29 mL; Urine volume [38]: 29 mL; Activity [39]: 1; Activity [40]: 2; Activity [41]: 305 u equiv min-1; Delta C urate / delta C insulin [42]: 0.088; Activity [43]: 245 u equiv min-1 |
| NS(=O)(=O)c1cc2c(cc1Cl)NCNS2(=O)=O [HYDROCHLOROTHIAZIDE] | 1 mL/min | 61 | 168 | 33 | 93 | 143 | 146 |  | 61 | -0.015 | 198 | 1.8 mL/min | 3 mL/min | 163 | 144 | 133 | 191 | 50 | 154 | 127 | Volume of urine [44]: 25; Increase [45]: 187; Activity [35]: 7; Activity [46]: 27 u equiv min-1; Urine volume [14]: 32 mL; Increase [47]: 25; Urine volume [18]: 30 mL; Urine volume [19]: 37 mL; Activity [39]: 18; Activity [40]: 50; Delta C urate / delta C insulin [48]: 0.01; Increase [49]: 275; Activity [50]: 193 u equiv min-1; Activity [27]: 11 u equiv min-1; Urine volume [30]: 33 mL |
